# Results taken from article PMC12102759 (Protein Science : A Publication of the Protein Society, 2025).
# System: G3BP1 NFT2
# Assay type: binding, human
# Settings: library DMS-CoV; bait G3BP1 NFT2; prey N; peptide APRITFGGPSDSTGSN; listed as aa = residue placed at this position; column sums to 1
Sequence,"DMS PSSM value, A (position 1)","DMS PSSM value, F (position 6)","DMS PSSM value, T (position 13)","DMS PSSM value, G (position 14)","DMS PSSM value, S (position 15)","DMS PSSM value, R (position 3)","DMS PSSM value, G (position 8)","DMS PSSM value, S (position 12)","DMS PSSM value, I (position 4)","DMS PSSM value, G (position 7)"
APRITFGGPSDSTGSN A1E (EPRITFGGPSDSTGSN),0.1097,–,–,–,–,–,–,–,–,–
APRITFGGPSDSTGSN F6P (APRITPGGPSDSTGSN),–,0,–,–,–,–,–,–,–,–
APRITFGGPSDSTGSN A1I (IPRITFGGPSDSTGSN),0.004309,–,–,–,–,–,–,–,–,–
APRITFGGPSDSTGSN T13F (APRITFGGPSDSFGSN),–,–,0.002251,–,–,–,–,–,–,–
APRITFGGPSDSTGSN G14W (APRITFGGPSDSTWSN),–,–,–,0.2634,–,–,–,–,–,–
APRITFGGPSDSTGSN S15P (APRITFGGPSDSTGPN),–,–,–,–,0.1504,–,–,–,–,–
APRITFGGPSDSTGSN R3H (APHITFGGPSDSTGSN),–,–,–,–,–,0.008447,–,–,–,–
APRITFGGPSDSTGSN G8M (APRITFGMPSDSTGSN),–,–,–,–,–,–,0,–,–,–
APRITFGGPSDSTGSN S15W (APRITFGGPSDSTGWN),–,–,–,–,0.00112,–,–,–,–,–
APRITFGGPSDSTGSN G8W (APRITFGWPSDSTGSN),–,–,–,–,–,–,0,–,–,–
APRITFGGPSDSTGSN G8D (APRITFGDPSDSTGSN),–,–,–,–,–,–,0,–,–,–
APRITFGGPSDSTGSN G8P (APRITFGPPSDSTGSN),–,–,–,–,–,–,0.001619,–,–,–
APRITFGGPSDSTGSN S12L (APRITFGGPSDLTGSN),–,–,–,–,–,–,–,0.001118,–,–
APRITFGGPSDSTGSN F6V (APRITVGGPSDSTGSN),–,0,–,–,–,–,–,–,–,–
APRITFGGPSDSTGSN R3Y (APYITFGGPSDSTGSN),–,–,–,–,–,0.03984,–,–,–,–
APRITFGGPSDSTGSN I4N (APRNTFGGPSDSTGSN),–,–,–,–,–,–,–,–,0,–

Sequence,"DMS PSSM value, A (position 1)","DMS PSSM value, F (position 6)","DMS PSSM value, T (position 13)","DMS PSSM value, G (position 14)","DMS PSSM value, S (position 15)","DMS PSSM value, R (position 3)","DMS PSSM value, G (position 8)","DMS PSSM value, S (position 12)","DMS PSSM value, I (position 4)","DMS PSSM value, G (position 7)"
APRITFGGPSDSTGSN G7W (APRITFWGPSDSTGSN),–,–,–,–,–,–,–,–,–,0
APRITFGGPSDSTGSN R3Q (APQITFGGPSDSTGSN),–,–,–,–,–,0.006747,–,–,–,–
APRITFGGPSDSTGSN S12Q (APRITFGGPSDQTGSN),–,–,–,–,–,–,–,0.01405,–,–
APRITFGGPSDSTGSN G14R (APRITFGGPSDSTRSN),–,–,–,0.002725,–,–,–,–,–,–
APRITFGGPSDSTGSN A1L (LPRITFGGPSDSTGSN),0.0004523,–,–,–,–,–,–,–,–,–
APRITFGGPSDSTGSN F6T (APRITTGGPSDSTGSN),–,0,–,–,–,–,–,–,–,–
APRITFGGPSDSTGSN I4A (APRATFGGPSDSTGSN),–,–,–,–,–,–,–,–,0,–
APRITFGGPSDSTGSN S12P (APRITFGGPSDPTGSN),–,–,–,–,–,–,–,0,–,–
APRITFGGPSDSTGSN I4V (APRVTFGGPSDSTGSN),–,–,–,–,–,–,–,–,0.03242,–
APRITFGGPSDSTGSN S12G (APRITFGGPSDGTGSN),–,–,–,–,–,–,–,0.0009188,–,–
APRITFGGPSDSTGSN G8Q (APRITFGQPSDSTGSN),–,–,–,–,–,–,0,–,–,–
APRITFGGPSDSTGSN G14E (APRITFGGPSDSTESN),–,–,–,0.002668,–,–,–,–,–,–
APRITFGGPSDSTGSN S15A (APRITFGGPSDSTGAN),–,–,–,–,0.001992,–,–,–,–,–
APRITFGGPSDSTGSN G14T (APRITFGGPSDSTTSN),–,–,–,0.007708,–,–,–,–,–,–
APRITFGGPSDSTGSN S15L (APRITFGGPSDSTGLN),–,–,–,–,0.01038,–,–,–,–,–

# Same assay, conditions: library DMS-CoV; bait G3BP1 NFT2; prey N; peptide APRITFGGPSDSTGSN; listed as aa = residue placed at this position; column sums to 1
Sequence,"DMS PSSM value, P (position 9)","DMS PSSM value, D (position 11)","DMS PSSM value, T (position 5)","DMS PSSM value, S (position 10)"
APRITFGGPSDSTGSN P9D (APRITFGGDSDSTGSN),0,–,–,–
APRITFGGPSDSTGSN D11L (APRITFGGPSLSTGSN),–,0.001888,–,–
APRITFGGPSDSTGSN T5W (APRIWFGGPSDSTGSN),–,–,0,–
APRITFGGPSDSTGSN T5Q (APRIQFGGPSDSTGSN),–,–,0,–
APRITFGGPSDSTGSN T5S (APRISFGGPSDSTGSN),–,–,0.002921,–
APRITFGGPSDSTGSN D11T (APRITFGGPSTSTGSN),–,0.104,–,–
APRITFGGPSDSTGSN D11H (APRITFGGPSHSTGSN),–,0.001494,–,–
APRITFGGPSDSTGSN S10P (APRITFGGPPDSTGSN),–,–,–,0.1036
APRITFGGPSDSTGSN D11R (APRITFGGPSRSTGSN),–,0,–,–
APRITFGGPSDSTGSN P9V (APRITFGGVSDSTGSN),0.001999,–,–,–
APRITFGGPSDSTGSN P9Y (APRITFGGYSDSTGSN),0.04934,–,–,–

# Same assay, conditions: library DMS-CoV; bait G3BP1 NFT2; prey N; peptide RNAPRITFGGPSDSTG; listed as aa = residue placed at this position; column sums to 1
Sequence,"DMS PSSM value, S (position 14)","DMS PSSM value, D (position 13)","DMS PSSM value, T (position 15)","DMS PSSM value, G (position 16)","DMS PSSM value, P (position 4)","DMS PSSM value, R (position 5)","DMS PSSM value, N (position 2)","DMS PSSM value, P (position 11)","DMS PSSM value, G (position 10)","DMS PSSM value, T (position 7)"
RNAPRITFGGPSDSTG S14A (RNAPRITFGGPSDATG),0,–,–,–,–,–,–,–,–,–
RNAPRITFGGPSDSTG D13R (RNAPRITFGGPSRSTG),–,0,–,–,–,–,–,–,–,–
RNAPRITFGGPSDSTG T15V (RNAPRITFGGPSDSVG),–,–,0,–,–,–,–,–,–,–
RNAPRITFGGPSDSTG G16Y (RNAPRITFGGPSDSTY),–,–,–,0,–,–,–,–,–,–
RNAPRITFGGPSDSTG P4V (RNAVRITFGGPSDSTG),–,–,–,–,0,–,–,–,–,–
RNAPRITFGGPSDSTG R5E (RNAPEITFGGPSDSTG),–,–,–,–,–,0.1354,–,–,–,–
RNAPRITFGGPSDSTG P4R (RNARRITFGGPSDSTG),–,–,–,–,0,–,–,–,–,–
RNAPRITFGGPSDSTG N2G (RGAPRITFGGPSDSTG),–,–,–,–,–,–,0,–,–,–
RNAPRITFGGPSDSTG P11S (RNAPRITFGGSSDSTG),–,–,–,–,–,–,–,0,–,–
RNAPRITFGGPSDSTG N2F (RFAPRITFGGPSDSTG),–,–,–,–,–,–,0,–,–,–
RNAPRITFGGPSDSTG G10I (RNAPRITFGIPSDSTG),–,–,–,–,–,–,–,–,0,–
RNAPRITFGGPSDSTG T7A (RNAPRIAFGGPSDSTG),–,–,–,–,–,–,–,–,–,0
RNAPRITFGGPSDSTG R5W (RNAPWITFGGPSDSTG),–,–,–,–,–,0,–,–,–,–
RNAPRITFGGPSDSTG,0,0,0,0,0,0,0,1,0,0
RNAPRITFGGPSDSTG R5H (RNAPHITFGGPSDSTG),–,–,–,–,–,0.001007,–,–,–,–
RNAPRITFGGPSDSTG S14H (RNAPRITFGGPSDHTG),0,–,–,–,–,–,–,–,–,–
RNAPRITFGGPSDSTG R5L (RNAPLITFGGPSDSTG),–,–,–,–,–,0.01198,–,–,–,–
RNAPRITFGGPSDSTG R5P (RNAPPITFGGPSDSTG),–,–,–,–,–,0.5972,–,–,–,–

Sequence,"DMS PSSM value, S (position 14)","DMS PSSM value, D (position 13)","DMS PSSM value, T (position 15)","DMS PSSM value, G (position 16)","DMS PSSM value, P (position 4)","DMS PSSM value, R (position 5)","DMS PSSM value, N (position 2)","DMS PSSM value, P (position 11)","DMS PSSM value, G (position 10)","DMS PSSM value, T (position 7)"
RNAPRITFGGPSDSTG T7V (RNAPRIVFGGPSDSTG),–,–,–,–,–,–,–,–,–,0
RNAPRITFGGPSDSTG P4T (RNATRITFGGPSDSTG),–,–,–,–,0,–,–,–,–,–
RNAPRITFGGPSDSTG T15G (RNAPRITFGGPSDSGG),–,–,0,–,–,–,–,–,–,–
RNAPRITFGGPSDSTG N2K (RKAPRITFGGPSDSTG),–,–,–,–,–,–,0,–,–,–
RNAPRITFGGPSDSTG D13M (RNAPRITFGGPSMSTG),–,0,–,–,–,–,–,–,–,–
RNAPRITFGGPSDSTG G16L (RNAPRITFGGPSDSTL),–,–,–,0,–,–,–,–,–,–
RNAPRITFGGPSDSTG R5Q (RNAPQITFGGPSDSTG),–,–,–,–,–,0.0005824,–,–,–,–
RNAPRITFGGPSDSTG T15A (RNAPRITFGGPSDSAG),–,–,0,–,–,–,–,–,–,–
RNAPRITFGGPSDSTG G10N (RNAPRITFGNPSDSTG),–,–,–,–,–,–,–,–,0,–
RNAPRITFGGPSDSTG G16F (RNAPRITFGGPSDSTF),–,–,–,0,–,–,–,–,–,–
RNAPRITFGGPSDSTG P4W (RNAWRITFGGPSDSTG),–,–,–,–,0,–,–,–,–,–
RNAPRITFGGPSDSTG T7R (RNAPRIRFGGPSDSTG),–,–,–,–,–,–,–,–,–,0
RNAPRITFGGPSDSTG N2L (RLAPRITFGGPSDSTG),–,–,–,–,–,–,0,–,–,–
RNAPRITFGGPSDSTG G10R (RNAPRITFGRPSDSTG),–,–,–,–,–,–,–,–,0,–
RNAPRITFGGPSDSTG R5N (RNAPNITFGGPSDSTG),–,–,–,–,–,0,–,–,–,–
RNAPRITFGGPSDSTG S14T (RNAPRITFGGPSDTTG),0,–,–,–,–,–,–,–,–,–
RNAPRITFGGPSDSTG G16H (RNAPRITFGGPSDSTH),–,–,–,0,–,–,–,–,–,–

# Same assay, conditions: library DMS-CoV; bait G3BP1 NFT2; prey N; peptide RNAPRITFGGPSDSTG; listed as aa = residue placed at this position; column sums to 1
Sequence,"DMS PSSM value, F (position 8)","DMS PSSM value, A (position 3)","DMS PSSM value, G (position 9)","DMS PSSM value, I (position 6)","DMS PSSM value, S (position 12)"
RNAPRITFGGPSDSTG F8A (RNAPRITAGGPSDSTG),0,–,–,–,–
RNAPRITFGGPSDSTG F8Q (RNAPRITQGGPSDSTG),0,–,–,–,–
RNAPRITFGGPSDSTG,1,0,0,0,0
RNAPRITFGGPSDSTG F8S (RNAPRITSGGPSDSTG),0,–,–,–,–
RNAPRITFGGPSDSTG G9M (RNAPRITFMGPSDSTG),–,–,0,–,–
RNAPRITFGGPSDSTG I6Q (RNAPRQTFGGPSDSTG),–,–,–,0,–
RNAPRITFGGPSDSTG A3L (RNLPRITFGGPSDSTG),–,0,–,–,–
RNAPRITFGGPSDSTG A3E (RNEPRITFGGPSDSTG),–,0.2371,–,–,–
RNAPRITFGGPSDSTG G9F (RNAPRITFFGPSDSTG),–,–,0,–,–
